{"source": "patent US5206229A", "about": "“Vitamin D analogues” (Leo Pharmaceutical Products LTD, priority 1988, dated 1993)", "key": {"differentiation of cells": {"system": "differentiation of cells", "conditions": "cited from earlier work"}, "[1]": {"conditions": "in vivo; cited from earlier work"}, "interleukins": {"system": "interleukins", "conditions": "cited from earlier work"}, "cell proliferation [2]": {"system": "cell proliferation", "conditions": "cited from earlier work"}, "[3]": {"system": "chicken intestinal receptor", "conditions": "compared with 1,25(OH)2 D3; cited from earlier work"}, "[4]": {"conditions": "in vivo; compared with 1,25(OH)2 D3; cited from earlier work"}, "rat intestinal receptor": {"system": "rat intestinal receptor", "conditions": "compared with 1,25(OH)2 D3; cited from earlier work"}, "[5]": {"system": "receptor in a human myeloid leukemia cell line (HL-60)", "conditions": "compared with 1,25(OH)2 D3; cited from earlier work"}, "HL-60 cells": {"system": "HL-60 cells", "conditions": "in vitro; more potent than 1,25(OH)2 D3; cited from earlier work"}, "cell differentiation [6]": {"system": "cell differentiation", "conditions": "more potent than 1,25(OH)2 D3; cited from earlier work"}, "[7]": {"conditions": "in vivo; cited from earlier work", "remark": "listed apart in the source"}, "[8]": {"system": "human monocytic tumour cell line", "assay": "induction of cell differentiation in a human monocytic tumour cell line", "type": "cell-based", "conditions": "compared with 1,25(OH)2 D3"}, "[9]": {"assay": "calcium metabolism in rats (hypercalciuria, hypercalcemia)"}, "[10]": {"system": "human monocytic tumour cell line", "assay": "inhibition of proliferation of tumour cells", "type": "cell-based", "conditions": "compared with 1,25(OH)2 D3"}, "[11]": {"system": "intestinal vitamin D receptor", "conditions": "in vitro; compared with 1,25(OH)2 D3; cited from earlier work"}, "cell differentiation [12]": {"system": "cell differentiation", "conditions": "cited from earlier work"}, "cell proliferation [13]": {"system": "cell proliferation", "conditions": "cited from earlier work", "remark": "listed apart in the source"}, "[14]": {"conditions": "cited from earlier work"}}, "data": [{"smiles": "C=C1/C(=C\\C=C2/CCC[C@]3(C)[C@@H]([C@H](C)CCCC(C)(C)O)CC[C@@H]23)C[C@@H](O)C[C@@H]1O", "note": "[1,25(OH)2 D3, 1α,25-dihydroxy-vitamin D3]", "values": [{"measurement": "stimulation of differentiation of cells", "setting": "differentiation of cells", "value": "able to stimulate the differentiation of cells"}, {"measurement": "effect on calcium metabolism", "setting": "[1]", "value": "well known potent effect"}, {"measurement": "effect on interleukins", "setting": "interleukins", "value": "influences the effects and/or production of interleukins"}, {"measurement": "inhibition of excessive cell proliferation", "setting": "cell proliferation [2]", "value": "inhibit excessive cell proliferation"}]}, {"smiles": "C=C1/C(=C\\C=C2/CCC[C@]3(C)[C@@H]([C@H](C)CCCCC(C)(C)O)CC[C@@H]23)C[C@@H](O)C[C@@H]1O", "note": "[24-Homo-1,25-dihydroxyvitamin D3]", "values": [{"measurement": "binding affinity to the chicken intestinal receptor", "setting": "[3]", "value": "the same binding affinity as 1,25(OH)2 D3"}, {"measurement": "potency in calcium metabolism assessments", "setting": "[4]", "value": "significantly less potent"}, {"measurement": "binding affinity to the rat intestinal receptor", "setting": "rat intestinal receptor", "value": "the same binding affinity as 1,25(OH)2 D3"}, {"measurement": "binding affinity to the receptor in HL-60", "setting": "[5]", "value": "the same binding affinity as 1,25(OH)2 D3"}, {"measurement": "potency in inducing differentiation of HL-60 cells relative to 1,25(OH)2 D3", "setting": "HL-60 cells", "value": 10, "unit": "fold"}]}, {"smiles": "C=C1/C(=C\\C=C2/CCC[C@]3(C)[C@@H]([C@H](C)CCCC(O)(CCC)CCC)CC[C@@H]23)C[C@@H](O)C[C@@H]1O", "note": "[26,27-diethyl-1α,25-dihydroxyvitamin D3]", "values": [{"measurement": "potency in inducing cell differentiation relative to 1,25(OH)2 D3", "setting": "cell differentiation [6]", "value": 10, "unit": "fold"}, {"measurement": "vitamin D activity (calcium metabolism effects)", "setting": "[7]", "value": "almost no vitamin D activity"}]}, {"smiles": "C=C1/C(=C\\C=C2/CCC[C@]3(C)[C@@H]([C@H](C)CCCC(C)(O)CC)CC[C@@H]23)C[C@@H](O)C[C@@H]1O", "note": "(some centres unmarked) [26-homo-1,25-dihydroxyvitamin D3]", "values": [{"measurement": "binding affinity to the chicken intestinal receptor", "setting": "[3]", "value": "the same binding affinity as 1,25(OH)2 D3"}, {"measurement": "potency in calcium metabolism assessments", "setting": "[4]", "value": "more potent"}, {"measurement": "binding affinity to the rat intestinal receptor", "setting": "rat intestinal receptor", "value": "the same binding affinity as 1,25(OH)2 D3"}, {"measurement": "binding affinity to the receptor in HL-60", "setting": "[5]", "value": "the same binding affinity as 1,25(OH)2 D3"}, {"measurement": "potency in inducing differentiation of HL-60 cells relative to 1,25(OH)2 D3", "setting": "HL-60 cells", "value": 10, "unit": "fold"}]}, {"smiles": "C=C1/C(=C\\C=C2/CCC[C@]3(C)[C@@H]([C@H](C)CCCCCC(C)(C)O)CC[C@@H]23)C[C@@H](O)C[C@@H]1O", "note": "[Compound 36, 1(S),3(R)-Dihydroxy-20(R)-(6-hydroxy-6-methyl-1-heptyl)-9,10-secopregna-5(Z),7(E),10(19)-triene]", "values": [{"measurement": "concentration needed to induce cell differentiation", "setting": "[8]", "value": "the same low concentrations as 1,25(OH)2 D3"}, {"measurement": "in vivo potency on calcium metabolism", "setting": "[9]", "value": "lower in vivo potency"}, {"measurement": "concentration effective in inhibiting proliferation", "setting": "[10]", "value": "the same low concentrations as 1,25(OH)2 D3"}]}, {"smiles": "C=C1/C(=C\\C=C2/CCC[C@]3(C)[C@@H]([C@H](C)CCCCCCC(C)(C)O)CC[C@@H]23)C[C@@H](O)C[C@@H]1O", "note": "[Compound 37, 1(S),3(R)-Dihydroxy-20(R)-(7-hydroxy-7-methyl-1-octyl)-9,10-secopregna-5(Z),7(E),10(19)-triene]", "values": [{"measurement": "concentration needed to induce cell differentiation", "setting": "[8]", "value": "the same low concentrations as 1,25(OH)2 D3"}, {"measurement": "in vivo potency on calcium metabolism", "setting": "[9]", "value": "lower in vivo potency"}, {"measurement": "concentration effective in inhibiting proliferation", "setting": "[10]", "value": "the same low concentrations as 1,25(OH)2 D3"}]}, {"smiles": "C=C1/C(=C\\C=C2/CCC[C@]3(C)[C@@H]([C@H](C)/C=C/CCCCC(C)(C)O)CC[C@@H]23)C[C@@H](O)C[C@@H]1O", "note": "[Compound 38]", "values": [{"measurement": "concentration needed to induce cell differentiation", "setting": "[8]", "value": "the same low concentrations as 1,25(OH)2 D3"}, {"measurement": "in vivo potency on calcium metabolism", "setting": "[9]", "value": "lower in vivo potency"}, {"measurement": "concentration effective in inhibiting proliferation", "setting": "[10]", "value": "the same low concentrations as 1,25(OH)2 D3"}]}, {"smiles": "C=C1/C(=C\\C=C2/CCC[C@]3(C)[C@@H]([C@H](C)/C=C/CCCC(C)(C)O)CC[C@@H]23)C[C@@H](O)C[C@@H]1O", "note": "[Compound 54]", "values": [{"measurement": "concentration needed to induce cell differentiation", "setting": "[8]", "value": "the same low concentrations as 1,25(OH)2 D3"}, {"measurement": "in vivo potency on calcium metabolism", "setting": "[9]", "value": "lower in vivo potency"}, {"measurement": "concentration effective in inhibiting proliferation", "setting": "[10]", "value": "the same low concentrations as 1,25(OH)2 D3"}]}, {"smiles": "C=C1/C(=C\\C=C2/CCC[C@]3(C)[C@@H]([C@H](C)/C=C/[C@@H](O)C4CC4)CC[C@@H]23)C[C@@H](O)C[C@@H]1O", "note": "[MC 903]", "values": [{"measurement": "binding to the intestinal vitamin D receptor", "setting": "[11]", "value": "binds equally well as 1,25(OH)2 D3"}, {"measurement": "induction of cell differentiation", "setting": "cell differentiation [12]", "value": "potent inducer of cell differentiation"}, {"measurement": "inhibition of cell proliferation", "setting": "cell proliferation [13]", "value": "inhibitor of cell proliferation"}, {"measurement": "activity on calcium metabolism in vivo", "setting": "[14]", "value": "only moderate activity"}]}]}
